Data as given in article PMC3386472 (Journal of Medicinal Chemistry, 2012).
Entries after “also recorded” stand apart in the source; their conditions may differ. Each block holds one compound with its values, some of them ahead of it.

What was measured:
reserpine-treated rats = experiment: Reversal of reserpine-induced hypolocomotion in rats; conditions: 5 µmol/kg, sc; for P compared to reserpine control (Dunnett's analysis post one-way ANOVA): horizontal locomotor activity; for Reversal of reserpine-induced hypolocomotion (horizontal activity): reserpine 5 mg/kg sc 18 h before, monitored 6 h
human D3 receptor = human D3 receptor (Homo sapiens, UniProt P35462); experiment: Stimulation of [35S]GTPγS binding, cloned human D3 receptor in CHO cells
[1] = system: MPTP- and lactacystin-lesioned animal models; conditions: cited from earlier work
human D2 receptor = human D2 receptor (Homo sapiens, UniProt P14416); experiment: Stimulation of [35S]GTPγS binding, cloned human D2 receptor in CHO cells; conditions: [35S]GTPγS functional assay, % Emax vs DA
Sequence of human D2 receptor (P14416 whole entry): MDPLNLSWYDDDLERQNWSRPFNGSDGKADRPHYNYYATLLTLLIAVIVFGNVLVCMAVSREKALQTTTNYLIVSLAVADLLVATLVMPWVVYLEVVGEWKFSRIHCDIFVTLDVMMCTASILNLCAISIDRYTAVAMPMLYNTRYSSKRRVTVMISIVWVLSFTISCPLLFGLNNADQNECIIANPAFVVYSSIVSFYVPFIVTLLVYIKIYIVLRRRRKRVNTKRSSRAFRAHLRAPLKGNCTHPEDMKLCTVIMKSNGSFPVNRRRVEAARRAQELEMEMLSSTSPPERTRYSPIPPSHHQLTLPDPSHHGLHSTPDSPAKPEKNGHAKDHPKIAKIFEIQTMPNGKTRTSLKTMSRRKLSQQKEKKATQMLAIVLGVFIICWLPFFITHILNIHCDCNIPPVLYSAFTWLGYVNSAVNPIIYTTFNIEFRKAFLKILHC

Sequence of human D3 receptor (P35462 whole entry): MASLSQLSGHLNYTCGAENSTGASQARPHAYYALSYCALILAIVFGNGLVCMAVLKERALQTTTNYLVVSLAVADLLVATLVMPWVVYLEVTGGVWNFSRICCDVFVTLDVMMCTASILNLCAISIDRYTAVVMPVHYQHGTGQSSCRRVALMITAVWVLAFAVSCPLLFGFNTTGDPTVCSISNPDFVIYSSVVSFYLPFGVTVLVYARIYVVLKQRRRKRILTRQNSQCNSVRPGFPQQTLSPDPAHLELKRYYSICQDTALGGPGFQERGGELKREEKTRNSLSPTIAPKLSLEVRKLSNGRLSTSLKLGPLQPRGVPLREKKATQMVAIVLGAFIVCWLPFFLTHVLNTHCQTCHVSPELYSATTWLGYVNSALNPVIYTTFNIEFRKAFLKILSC

SMILES: CCCN(CCC)CCc1cccc2c1CC(=O)N2.Cl [ropinirole]
P compared to reserpine control (Dunnett's analysis post one-way ANOVA) (reserpine-treated rats): < 0.05
Reversal of reserpine-induced hypolocomotion (horizontal activity) (reserpine-treated rats): significant locomotor activation

Emax (human D3 receptor; CHO, read-out: hCHO-D3 % Emax): 102 ± 2%
SMILES: CCCN(CCN1CCN(c2nccc3ccccc23)CC1)[C@H]1CCc2nc(N)sc2C1 [Compound D-301]

SMILES: CCCN(CCN1CCN(c2ccc3[nH]ccc3c2)CC1)[C@H]1CCc2nc(N)sc2C1 [Compound (−)-19, (S)-N^6-{2-[4-(1H-Indol-5-yl)piperazin-1-yl]ethyl}-N^6-propyl-4,5,6,7-tetrahydro benzothiazole-2,6-diamine]
P compared to reserpine control (Dunnett's analysis post one-way ANOVA) (reserpine-treated rats): < 0.01
Reversal of reserpine-induced hypolocomotion (horizontal activity) (reserpine-treated rats): significantly reversing akinesia; also recorded: significant, long-lasting reversal of hypolocomotion

SMILES: CCCN(CCN1CCN(c2ccc(-c3ccccc3)cc2)CC1)[C@H]1CCc2nc(N)sc2C1 [Compound D-264]
Neuroprotection in PD animal models ([1]; MPTP and lactacystin models): neuroprotective
Behavioral syndromes in PD mouse models ([1]; acute MPTP and progressive lactacystin mouse models): significantly improved behavioral syndromes

Agonist activity at D3 receptor (in words) (human D3 receptor; [35S]GTPγS functional assay, % Emax vs DA): full agonist activity
Agonist activity at D2 receptor (in words) (human D2 receptor): full agonist activity
SMILES: CCCN(CCN1CCN(C(=O)c2c[nH]c3ccccc23)CC1)[C@H]1CCc2nc(N)sc2C1 [Compound (−)-45, (S)-(4-{2-[(2-Amino-4,5,6,7-tetrahydrobenzothiazol-6-yl)propylamino]ethyl}piperazin-1-yl)-(1H-indol-3-yl)methanone]
